Source: patent US20250084039A1, “4-SUBSTITUTED AMINOISOQUINOLINE DERIVATIVES” (Purdue Research Foundation, priority 2016, published 2025)
Where two headings read alike, the source gives them in different places.

How the values were obtained:
HeLa = assay: Proliferation inhibition at single concentration (CellTiter-Blue); assay type: cell-based; settings: 1 μM compound
MCF-7 = assay: as above; assay type: cell-based; settings: 1 μM compound
MV4-11 = assay: Activity against AML cell line MV4-11 (CellTiter-Blue, 72 h); assay type: cell-based
How it was run: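 Suspension cells seeded at 4000 per well, left overnight, then exposed to compound from 10 nM to 100 μM for 72 h. Viability by CellTiter-Blue resazurin fluorescence after 4 h (Ex 560, Em 590); IC50 from concentration-response.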

MV-4-11 = assay: Proliferation inhibition at single concentration (CellTiter-Blue); assay type: cell-based; settings: 1 μM compound
RIPK3 = RIPK3 (Homo sapiens (Human), UniProt Q9Y572); assay: Reaction Biology HotSpot kinase assay; assay type: biochemical; settings: 500 nM compound; read-out: Percentage kinase inhibition RIPK3
Sequence of RIPK3 (Q9Y572 whole entry): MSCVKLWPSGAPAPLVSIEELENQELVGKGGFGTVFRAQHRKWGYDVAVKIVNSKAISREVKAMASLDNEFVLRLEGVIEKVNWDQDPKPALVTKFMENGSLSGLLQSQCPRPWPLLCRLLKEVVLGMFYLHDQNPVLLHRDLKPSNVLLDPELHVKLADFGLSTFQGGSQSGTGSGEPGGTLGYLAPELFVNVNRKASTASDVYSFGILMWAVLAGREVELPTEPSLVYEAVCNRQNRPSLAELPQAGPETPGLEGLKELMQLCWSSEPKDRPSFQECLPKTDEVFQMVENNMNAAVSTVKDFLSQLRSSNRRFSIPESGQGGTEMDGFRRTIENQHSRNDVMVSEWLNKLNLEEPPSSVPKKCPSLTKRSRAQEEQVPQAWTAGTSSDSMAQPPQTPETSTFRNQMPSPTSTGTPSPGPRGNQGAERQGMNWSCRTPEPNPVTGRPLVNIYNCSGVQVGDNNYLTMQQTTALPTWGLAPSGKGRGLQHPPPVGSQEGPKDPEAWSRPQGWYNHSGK
How it was run: (§1)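 Single-point screen, 500 nM cpd; 20 min preinc with enzyme/substrate; start with ATP + 33P-ATP, 100 μM final; 2 h RT; P81 filter capture. Buffer: 20 mM HEPES pH 7.5, 10 mM MgCl2, 1 mM EGTA, 0.02% Brij35, 1% DMSO. Data as % activity vs DMSO.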

FGFR2 = FGFR2 (Homo sapiens (Human), UniProt P21802); assay: Reaction Biology HotSpot kinase assay; assay type: biochemical; settings: 500 nM compound; read-out: Percentage kinase inhibition FGFR2
How it was run: as §1

PDGFRb = PDGFRb (Homo sapiens (Human), UniProt P09619); assay: Reaction Biology HotSpot kinase assay; assay type: biochemical; settings: 500 nM compound; read-out: Percentage kinase inhibition PDGFRb
Sequence of PDGFRb (P09619 33-1106): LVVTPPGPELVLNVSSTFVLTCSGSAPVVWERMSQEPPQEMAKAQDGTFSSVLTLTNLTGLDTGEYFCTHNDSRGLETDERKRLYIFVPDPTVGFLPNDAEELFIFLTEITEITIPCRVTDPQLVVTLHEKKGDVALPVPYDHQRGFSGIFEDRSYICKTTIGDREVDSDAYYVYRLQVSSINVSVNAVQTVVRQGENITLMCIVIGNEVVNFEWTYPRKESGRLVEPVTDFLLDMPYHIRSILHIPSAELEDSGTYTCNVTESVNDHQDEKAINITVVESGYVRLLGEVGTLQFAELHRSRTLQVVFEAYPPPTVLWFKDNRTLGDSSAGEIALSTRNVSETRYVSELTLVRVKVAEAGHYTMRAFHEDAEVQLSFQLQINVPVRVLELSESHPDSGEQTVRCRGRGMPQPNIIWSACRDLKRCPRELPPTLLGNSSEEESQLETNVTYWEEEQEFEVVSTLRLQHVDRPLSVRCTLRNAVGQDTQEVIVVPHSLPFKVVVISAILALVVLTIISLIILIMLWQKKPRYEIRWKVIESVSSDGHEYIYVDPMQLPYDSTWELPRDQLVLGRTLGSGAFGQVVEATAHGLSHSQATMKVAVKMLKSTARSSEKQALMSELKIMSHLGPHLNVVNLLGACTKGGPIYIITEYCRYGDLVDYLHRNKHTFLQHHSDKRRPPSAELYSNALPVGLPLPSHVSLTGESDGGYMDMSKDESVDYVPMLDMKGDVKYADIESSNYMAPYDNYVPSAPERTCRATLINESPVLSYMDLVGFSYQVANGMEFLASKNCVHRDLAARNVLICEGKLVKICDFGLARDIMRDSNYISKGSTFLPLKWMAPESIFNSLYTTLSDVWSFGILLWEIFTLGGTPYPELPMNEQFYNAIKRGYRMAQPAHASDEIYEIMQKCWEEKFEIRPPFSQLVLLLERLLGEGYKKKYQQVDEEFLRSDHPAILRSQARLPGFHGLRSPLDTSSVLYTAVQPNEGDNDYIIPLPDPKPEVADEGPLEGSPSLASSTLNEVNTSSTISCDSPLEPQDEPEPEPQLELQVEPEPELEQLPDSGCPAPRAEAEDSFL
How it was run: as §1

MEKK2 = MEKK2 (Homo sapiens (Human), UniProt Q9Y2U5); assay: Reaction Biology HotSpot kinase assay; assay type: biochemical; settings: 500 nM compound; read-out: Percentage kinase inhibition MEKK2
How it was run: as §1

FGFR3 = FGFR3 (Homo sapiens (Human), UniProt P22607); assay: Reaction Biology HotSpot kinase assay; assay type: biochemical; settings: 500 nM compound; read-out: Percentage kinase inhibition FGFR3
Sequence of FGFR3 (P22607 23-806): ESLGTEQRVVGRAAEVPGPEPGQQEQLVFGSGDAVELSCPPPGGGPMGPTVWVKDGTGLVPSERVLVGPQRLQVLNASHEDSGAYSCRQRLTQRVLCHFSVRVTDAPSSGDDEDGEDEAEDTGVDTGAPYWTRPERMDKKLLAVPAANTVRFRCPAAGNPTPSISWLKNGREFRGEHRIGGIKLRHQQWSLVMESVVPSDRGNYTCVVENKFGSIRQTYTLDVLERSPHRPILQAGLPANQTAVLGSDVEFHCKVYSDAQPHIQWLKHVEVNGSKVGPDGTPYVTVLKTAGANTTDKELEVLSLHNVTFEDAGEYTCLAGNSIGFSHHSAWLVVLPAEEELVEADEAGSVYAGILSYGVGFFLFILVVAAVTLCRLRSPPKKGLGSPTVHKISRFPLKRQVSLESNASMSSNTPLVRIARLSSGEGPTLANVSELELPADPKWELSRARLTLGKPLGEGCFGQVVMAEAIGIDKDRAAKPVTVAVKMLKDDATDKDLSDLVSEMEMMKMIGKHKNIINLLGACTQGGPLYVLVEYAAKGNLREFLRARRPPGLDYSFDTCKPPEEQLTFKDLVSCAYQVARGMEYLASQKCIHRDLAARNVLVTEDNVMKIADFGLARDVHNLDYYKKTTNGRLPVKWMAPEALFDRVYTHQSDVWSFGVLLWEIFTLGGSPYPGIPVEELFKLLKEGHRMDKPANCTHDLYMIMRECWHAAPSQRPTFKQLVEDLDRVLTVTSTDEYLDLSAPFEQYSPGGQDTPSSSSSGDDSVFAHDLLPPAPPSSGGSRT
How it was run: as §1

RIPK2 = RIPK2 (Homo sapiens (Human), UniProt O43353); assay: Reaction Biology HotSpot kinase assay; assay type: biochemical; settings: 500 nM compound; read-out: Percentage kinase inhibition RIPK2
Sequence of RIPK2 (O43353 whole entry): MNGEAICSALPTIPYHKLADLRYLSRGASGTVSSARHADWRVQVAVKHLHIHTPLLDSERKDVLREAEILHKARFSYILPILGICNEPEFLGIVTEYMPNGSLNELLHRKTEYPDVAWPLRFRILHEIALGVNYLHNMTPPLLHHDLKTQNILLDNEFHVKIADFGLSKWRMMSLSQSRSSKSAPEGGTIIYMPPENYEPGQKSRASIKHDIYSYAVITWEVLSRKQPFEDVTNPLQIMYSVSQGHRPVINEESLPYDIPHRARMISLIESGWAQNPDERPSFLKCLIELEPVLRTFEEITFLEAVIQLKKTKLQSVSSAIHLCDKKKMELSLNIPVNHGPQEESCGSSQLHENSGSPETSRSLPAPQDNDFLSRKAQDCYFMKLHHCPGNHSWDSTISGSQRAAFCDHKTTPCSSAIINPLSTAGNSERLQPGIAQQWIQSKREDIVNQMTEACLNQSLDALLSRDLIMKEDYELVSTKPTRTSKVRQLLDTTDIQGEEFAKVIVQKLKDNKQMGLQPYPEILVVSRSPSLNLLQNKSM
How it was run: as §1

RIPK4 = RIPK4 (Homo sapiens (Human), UniProt P57078); assay: Reaction Biology HotSpot kinase assay; assay type: biochemical; settings: 500 nM compound; read-out: Percentage kinase inhibition RIPK4
Sequence of RIPK4 (P57078 whole entry): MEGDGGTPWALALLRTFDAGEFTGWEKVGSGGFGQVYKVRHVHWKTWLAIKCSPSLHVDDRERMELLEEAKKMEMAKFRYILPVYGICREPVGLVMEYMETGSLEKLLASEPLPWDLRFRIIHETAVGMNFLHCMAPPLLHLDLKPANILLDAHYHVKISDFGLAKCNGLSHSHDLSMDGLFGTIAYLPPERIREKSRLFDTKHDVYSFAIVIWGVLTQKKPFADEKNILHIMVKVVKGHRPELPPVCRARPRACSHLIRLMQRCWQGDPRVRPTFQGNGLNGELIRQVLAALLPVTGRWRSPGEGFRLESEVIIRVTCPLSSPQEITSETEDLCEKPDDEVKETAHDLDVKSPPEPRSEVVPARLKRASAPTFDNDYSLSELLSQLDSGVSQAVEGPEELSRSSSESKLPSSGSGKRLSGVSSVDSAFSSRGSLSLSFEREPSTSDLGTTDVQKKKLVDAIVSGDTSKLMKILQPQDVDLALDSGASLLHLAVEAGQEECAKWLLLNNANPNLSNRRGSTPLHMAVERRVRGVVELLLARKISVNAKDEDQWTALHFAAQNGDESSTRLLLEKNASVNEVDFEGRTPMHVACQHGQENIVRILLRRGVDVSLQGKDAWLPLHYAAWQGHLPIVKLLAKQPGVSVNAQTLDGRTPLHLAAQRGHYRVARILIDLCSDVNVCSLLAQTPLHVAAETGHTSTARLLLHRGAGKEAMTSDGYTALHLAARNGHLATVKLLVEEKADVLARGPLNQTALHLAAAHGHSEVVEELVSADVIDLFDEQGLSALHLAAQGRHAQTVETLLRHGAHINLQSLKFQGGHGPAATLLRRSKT
How it was run: as §1

FGFR4 = FGFR4 (Homo sapiens (Human), UniProt P22455); assay: Reaction Biology HotSpot kinase assay; assay type: biochemical; settings: 500 nM compound; read-out: Percentage kinase inhibition FGFR4
Sequence of FGFR4 (P22455 22-802): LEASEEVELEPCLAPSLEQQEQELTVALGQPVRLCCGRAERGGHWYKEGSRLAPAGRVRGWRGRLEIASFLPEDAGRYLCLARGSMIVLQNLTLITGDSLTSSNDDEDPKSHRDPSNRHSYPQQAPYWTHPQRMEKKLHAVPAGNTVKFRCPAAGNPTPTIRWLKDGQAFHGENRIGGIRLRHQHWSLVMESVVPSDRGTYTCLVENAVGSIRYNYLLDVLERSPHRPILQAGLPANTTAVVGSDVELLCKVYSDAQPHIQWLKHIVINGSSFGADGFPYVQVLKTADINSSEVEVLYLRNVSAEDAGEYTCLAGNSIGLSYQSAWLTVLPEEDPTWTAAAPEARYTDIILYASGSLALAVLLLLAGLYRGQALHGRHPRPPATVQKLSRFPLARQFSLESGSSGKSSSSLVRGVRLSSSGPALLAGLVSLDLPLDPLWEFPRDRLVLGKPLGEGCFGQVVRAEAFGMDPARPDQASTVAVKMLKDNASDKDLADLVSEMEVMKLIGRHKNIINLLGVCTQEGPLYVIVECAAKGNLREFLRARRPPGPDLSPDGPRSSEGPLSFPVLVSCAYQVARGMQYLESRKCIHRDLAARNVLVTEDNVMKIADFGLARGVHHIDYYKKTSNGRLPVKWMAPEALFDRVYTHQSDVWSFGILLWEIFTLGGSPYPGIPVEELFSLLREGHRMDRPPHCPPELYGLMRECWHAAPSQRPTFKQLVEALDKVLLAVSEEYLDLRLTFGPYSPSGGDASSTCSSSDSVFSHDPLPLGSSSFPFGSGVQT
How it was run: as §1

DAPK1 = DAPK1 (Homo sapiens (Human), UniProt P53355); assay: Reaction Biology HotSpot kinase assay; assay type: biochemical; settings: 500 nM compound; read-out: Percentage kinase inhibition DAPK1
How it was run: as §1

DNA-PK = DNA-PK (Homo sapiens (Human), UniProt P78527); assay: Reaction Biology HotSpot kinase assay; assay type: biochemical; settings: 500 nM compound; read-out: Percentage kinase inhibition DNA-PK
How it was run: as §1

SRC = SRC (Homo sapiens (Human), UniProt P12931); assay: Inhibition of kinase enzymatic activity (IC50); assay type: biochemical
Sequence of SRC (P12931 whole entry, looked up): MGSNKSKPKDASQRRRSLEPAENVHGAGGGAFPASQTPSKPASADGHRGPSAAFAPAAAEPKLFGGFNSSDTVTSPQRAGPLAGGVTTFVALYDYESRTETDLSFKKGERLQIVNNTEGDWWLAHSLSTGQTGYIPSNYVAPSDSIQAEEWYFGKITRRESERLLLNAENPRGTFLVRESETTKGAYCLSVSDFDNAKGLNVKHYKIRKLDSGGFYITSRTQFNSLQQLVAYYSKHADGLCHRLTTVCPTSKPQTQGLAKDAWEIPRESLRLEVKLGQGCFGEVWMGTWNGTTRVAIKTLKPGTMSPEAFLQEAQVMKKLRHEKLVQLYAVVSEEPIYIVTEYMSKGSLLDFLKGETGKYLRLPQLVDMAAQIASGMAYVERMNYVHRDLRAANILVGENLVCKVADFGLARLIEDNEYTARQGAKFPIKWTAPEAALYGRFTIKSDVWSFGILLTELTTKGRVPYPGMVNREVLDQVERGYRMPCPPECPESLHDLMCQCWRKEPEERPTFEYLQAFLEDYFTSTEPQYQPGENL

[1] = biological target: ABL1 (T315I) non-phosphorylated (Homo sapiens (Human), UniProt P00519, T315I); assay: DiscoverX Kd Elect binding

Row | SMILES | inhibition at 0.5 µM (RIPK3) [%] | inhibition at 0.5 µM (FGFR2) [%] | inhibition at 0.5 µM (PDGFRb) [%] | inhibition at 0.5 µM (MEKK2) [%] | inhibition at 0.5 µM (FGFR3) [%] | inhibition at 0.5 µM (RIPK2) [%] | inhibition at 0.5 µM (RIPK4) [%] | inhibition at 0.5 µM (FGFR4) [%] | inhibition at 0.5 µM (DAPK1) [%] | inhibition at 0.5 µM (DNA-PK) [%] | IC50 (SRC) [nM] | Kd [1] [nM] | further results
1 | CN(C)CC(O)CNC(=O)c1ccc(C#Cc2c(N)ncc3ccc(Cl)cc23)cc1 (stereo not drawn) [HSM1702] | – | – | – | – | – | – | – | – | – | – | – | – | Percent inhibition of proliferation HeLa (HeLa): 17%; Percent inhibition of proliferation MCF-7 (MCF-7): 100%; IC50 (MV4-11; 72 h, read-out: IC50 against MV4-11/uM): 0.003 µM; IC50 (MV4-11; FIG. 1, read-out: anticancer activities (IC50) against MV4-11): 0.003 µM; IC50 (MV4-11; Table 2, read-out: IC50 (nM) against MV4-11 (AML cell line)): 0.0055 ± 0.0013 µM; Percent inhibition of proliferation MV-4-11 (MV-4-11): 99%
2 | Cc1ccc(C(=O)Nc2ccc(CN3CCN(C)CC3)c(C(F)(F)F)c2)cc1C#Cc1cc(N)nc2ccccc12 [HSN285] | 0 | 0 | 46 | 0 | 0 | 0 | 25 | 0 | 14 | – | – | – | –
3 | COc1cc2nc(N)nc(C#Cc3cc(C(=O)Nc4ccc(CN5CCN(C)CC5)c(C(F)(F)F)c4)ccc3C)c2cc1OC [HSN325] | – | – | – | – | – | – | – | – | – | 0 | – | – | –
4 | Cc1ccc(C(=O)Nc2ccc(CN3CCN(C)CC3)c(C(F)(F)F)c2)cc1C#Cc1c(N)ncc2ccc(Cl)cc12 [HSN286] | 96 | 96 | 96 | 52 | 88 | 25 | 32 | 82 | 9 | 0 | 4.5 | 29 | inhibition at 1 µM (HeLa; Homo sapiens, HeLa, read-out: Percent inhibition of proliferation HeLa): 100%; inhibition at 1 µM (MCF-7; Homo sapiens, MCF7, read-out: Percent inhibition of proliferation MCF-7): 100%; inhibition at 1 µM (MV-4-11; Homo sapiens, MV4-11, read-out: Percent inhibition of proliferation MV-4-11): 99%
5 | Cc1ccc(C(=O)Nc2ccc(CN3CCN(C)CC3)c(C(F)(F)F)c2)cc1C#Cc1cnc(N)c2ncccc12 [HSN356, 3-((8-amino-1,7-naphthyridin-5-yl)ethynyl)-4-methyl-N-(4-((4-methylpiperazin-1-yl)methyl)-3-(trifluoromethyl)phenyl)benzamide] | – | – | – | – | – | – | – | – | – | – | 14.9 | 2.4 | –
